Assay results reported in PMC8218751, “Visualizing Borrelia burgdorferi Infection Using a Small-Molecule Imaging Probe” (Journal of Clinical Microbiology, 2021).
“Also recorded” adds a separate entry of the source.

Legend:
Type in all cases: binding
[1] = target: T1, E. coli HtpG (Escherichia coli, UniProt P0A6Z3); experiment: biochemical
T1 construct: His6 (N); made in house; host or cells: E. coli BL21(DE3)
Method: (§1) Escherichia coli (strain BL21/DE3) genomic DNA was isolated from a lab culture generated from the cloning/expression bacterium (ThermoFisher catalog no. EC0114) by overnight proteinase K digestion at 56°C, high-salt clarification, and ethanol precipitation. […] Human Hsp90-alpha sequences were derived from cDNA generated from total mRNA of the human breast epithelial line, MCF10A. HtpG DNA sequences were PCR cloned from these DNAs using primers designed to allow in-frame cloning with GFP in the isopropyl-β-D-thiogalactopyranoside (IPTG)-inducible bacterial expression vector. […] Fusion protein cloning was done using the ligation-independent cloning procedure via single-nucleotide T4 DNA polymerase treatment of vector and purified PCR products followed by annealing of complementary single-strand ends before transformation into DH5 E. coli. […] Fusion protein synthesis was induced by incubation with 1 mM IPTG or autoinduction ([17]).
(§2) γ-linked ATP Sepharose matrix was generated as described previously by the Haystead lab ([18]). […] The clarified lysate was added to a column containing ATP-bound Sepharose. The column was washed with low-salt buffer (150 mM NaCl, 25 mM HEPES, pH 7.4, 1 mM dithiothreitol [DTT], and 60 mM MgCl2), followed by high-salt buffer (1 M NaCl, 25 mM HEPES, pH 7.4, 1 mM DTT, 0.1% IGEPAL, and 60 mM MgCl2) and once again low-salt buffer to remove unbound protein. Next, the resin with bound proteins (50 μl) was transferred to a 0.2-μm polyvinylidene fluoride filter 96-well plate (Corning) sitting on top of a black flat-bottomed 96-well catch plate (Corning). […] The eluted proteins were measured in a fluorescent plate reader to detect the GFP.
Subtle single amino acid differences are present within the catalytic clefts of these proteins, especially between residues that contact the nucleotide. […] We therefore reasoned that these differences may be sufficient to design small molecules that can similarly discriminate HtpG of stealth organisms. To test this hypothesis, we utilized a fluorescent-linked enzyme chemoproteomic strategy (FLECS) assay to test known Hsp90 inhibitors ([18]) for binding to various HtpG constructs. First, we cloned and expressed in E. coli recombinant N-terminal GFP-fusion forms of HtpG from B. burgdorferi, E. coli, and Treponema denticola, the oral spirochete, as well as human Hsp90. We then incubated lysate after protein expression with an ATP Sepharose resin to enable binding. In this assay, ATP is tethered to Sepharose beads via its γ-phosphate, enabling the nucleotide to bind to ATP binding proteins such as Hsp90 and HtpG, but is nonhydrolyzable ([24]). After proteins are bound to the ATP Sepharose resin, small molecules with affinity for the ATP binding site will elute the GFP-fusion protein, which can readily be detected and quantified on a plate fluorometer.
These compounds were selected for testing based on their known binding to human Hsp90 ([25], [26]).

[2] = target: T. denticola HtpG (Treponema denticola, UniProt P61188); experiment: FLECS assay, elution of GFP-HtpG from ATP Sepharose; details: in words
Method: Escherichia coli (strain BL21/DE3) genomic DNA was isolated from a lab culture generated from the cloning/expression bacterium (ThermoFisher catalog no. EC0114) by overnight proteinase K digestion at 56°C, high-salt clarification, and ethanol precipitation. B. burgdorferi (strain B31) and Treponema denticola genomic DNAs were obtained from the American Type Culture Collection (Manassas, VA; ATCC 35210 and 35405, respectively). Human Hsp90-alpha sequences were derived from cDNA generated from total mRNA of the human breast epithelial line, MCF10A. HtpG DNA sequences were PCR cloned from these DNAs using primers designed to allow in-frame cloning with GFP in the isopropyl-β-D-thiogalactopyranoside (IPTG)-inducible bacterial expression vector. 1GFP (pET His6 GFP TEV [tobacco etch virus] LIC [ligation-independent cloning] vector) was a gift from Scott Gradia (Addgene plasmid #29663; http://n2t.net/addgene:29663; RRID:Addgene_29663). Fusion protein cloning was done using the ligation-independent cloning procedure via single-nucleotide T4 DNA polymerase treatment of vector and purified PCR products followed by annealing of complementary single-strand ends before transformation into DH5 E. coli. Proper fusion junctions and fidelity of cloned inserts were confirmed by sequencing, and then the plasmid was transformed into E. coli BL21(DE3) for protein expression. Fusion protein synthesis was induced by incubation with 1 mM IPTG or autoinduction ([17]). Production of GFP-HtpG/Hsp90 was confirmed by identification of GFP and HtpG peptides with matrix-assisted laser desorption ionization (MALDI) using an AB Sciex 5800 time of flight (TOF)/TOF mass spectrometer in the induced band identified on an SDS-PAGE gel. To complete binding curves, several liters of induced cultures was generated, pelleted with centrifugation of 3,150 × g for 15 min, flash frozen in liquid nitrogen, and then stored at −80°C until subsequent fluorescent-linked enzyme chemoproteomic strategy (FLECS) analysis.
γ-linked ATP Sepharose matrix was generated as described previously by the Haystead lab ([18]). BL21 bacterial pellets expressing GFP-fusion proteins of E. coli, B. burgdorferi, and T. denticola HtpGs and human Hsp90 were lysed with B-PER complete bacterial protein extraction reagent (Thermo Scientific catalog number 89821) and centrifuged at 96,000 relative centrifugal force (RCF) (Beckman Coulter type 45 Ti fixed-angle rotor) to pellet insoluble BL21 material. The clarified lysate was added to a column containing ATP-bound Sepharose. The column was washed with low-salt buffer (150 mM NaCl, 25 mM HEPES, pH 7.4, 1 mM dithiothreitol [DTT], and 60 mM MgCl2), followed by high-salt buffer (1 M NaCl, 25 mM HEPES, pH 7.4, 1 mM DTT, 0.1% IGEPAL, and 60 mM MgCl2) and once again low-salt buffer to remove unbound protein. Next, the resin with bound proteins (50 μl) was transferred to a 0.2-μm polyvinylidene fluoride filter 96-well plate (Corning) sitting on top of a black flat-bottomed 96-well catch plate (Corning). Small molecules or ATP was added to each well (50 μl), and the plates were centrifuged using an Eppendorf 5810 centrifuge at 1,100 rpm (220 RCF) for 1 min. The eluted proteins were measured in a fluorescent plate reader to detect the GFP. Some compounds are autofluorescent, and so to confirm fusion protein elution, samples were analyzed by classic SDS-PAGE methods followed by silver staining and MALDI mass spectrometry using a AB Sciex 5800 TOF/TOF mass spectrometer.
Subtle single amino acid differences are present within the catalytic clefts of these proteins, especially between residues that contact the nucleotide. […] We therefore reasoned that these differences may be sufficient to design small molecules that can similarly discriminate HtpG of stealth organisms. To test this hypothesis, we utilized a fluorescent-linked enzyme chemoproteomic strategy (FLECS) assay to test known Hsp90 inhibitors ([18]) for binding to various HtpG constructs. […]

[3] = target: human Hsp90 (Homo sapiens, UniProt P07900); experiment: FLECS assay, elution of GFP-Hsp90 from ATP Sepharose; design: His6 (N); made in house; host or cells: E. coli BL21(DE3); details: in words
Method: as §1, §2
Subtle single amino acid differences are present within the catalytic clefts of these proteins, especially between residues that contact the nucleotide. […] After proteins are bound to the ATP Sepharose resin, small molecules with affinity for the ATP binding site will elute the GFP-fusion protein, which can readily be detected and quantified on a plate fluorometer. […]

Chain of T. denticola HtpG (P61188 whole entry): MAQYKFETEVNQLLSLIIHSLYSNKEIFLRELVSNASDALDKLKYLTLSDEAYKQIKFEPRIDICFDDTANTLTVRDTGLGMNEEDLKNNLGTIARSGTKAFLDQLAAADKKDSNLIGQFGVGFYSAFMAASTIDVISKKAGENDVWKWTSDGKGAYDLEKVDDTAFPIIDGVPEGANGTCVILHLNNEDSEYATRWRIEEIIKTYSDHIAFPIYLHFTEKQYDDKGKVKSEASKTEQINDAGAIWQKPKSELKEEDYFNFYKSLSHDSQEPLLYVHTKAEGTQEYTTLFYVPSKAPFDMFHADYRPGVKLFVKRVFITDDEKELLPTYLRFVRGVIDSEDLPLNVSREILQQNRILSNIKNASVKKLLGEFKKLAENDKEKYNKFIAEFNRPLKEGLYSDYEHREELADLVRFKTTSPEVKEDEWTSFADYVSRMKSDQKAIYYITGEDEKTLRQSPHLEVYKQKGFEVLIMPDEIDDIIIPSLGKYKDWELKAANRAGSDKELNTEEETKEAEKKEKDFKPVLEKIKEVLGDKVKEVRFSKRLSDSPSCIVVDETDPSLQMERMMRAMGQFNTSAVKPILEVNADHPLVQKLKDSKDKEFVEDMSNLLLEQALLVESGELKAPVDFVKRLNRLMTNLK
T1 sequence (P0A6Z3 whole entry): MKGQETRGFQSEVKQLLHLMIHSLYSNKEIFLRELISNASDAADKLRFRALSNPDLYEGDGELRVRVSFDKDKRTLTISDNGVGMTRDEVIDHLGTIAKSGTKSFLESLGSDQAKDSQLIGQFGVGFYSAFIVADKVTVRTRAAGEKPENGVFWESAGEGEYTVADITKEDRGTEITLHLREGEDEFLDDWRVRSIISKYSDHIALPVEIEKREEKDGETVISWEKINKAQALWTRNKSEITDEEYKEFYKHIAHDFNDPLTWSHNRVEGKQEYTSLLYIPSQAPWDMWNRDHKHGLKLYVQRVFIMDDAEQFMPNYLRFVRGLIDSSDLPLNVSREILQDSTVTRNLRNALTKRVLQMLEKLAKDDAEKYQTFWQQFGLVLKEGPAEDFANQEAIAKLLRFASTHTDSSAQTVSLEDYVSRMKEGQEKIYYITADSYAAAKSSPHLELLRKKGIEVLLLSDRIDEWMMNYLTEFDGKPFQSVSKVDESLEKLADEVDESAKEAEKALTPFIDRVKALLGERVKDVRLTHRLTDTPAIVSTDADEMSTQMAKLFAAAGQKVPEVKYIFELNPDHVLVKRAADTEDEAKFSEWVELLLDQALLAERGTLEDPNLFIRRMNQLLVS

Cc1nn(-c2ccc(C(=O)N(C)C)c(NCCCOCCOCCOCCOCCOCCCNCc3ccc(C(=C\C=C4/N(CCCCS(=O)(=O)O)c5ccccc5C4(C)C)/C=C/C4=[N+](CCCCS(=O)(=O)[O-])c5ccccc5C4(C)C)cc3)c2)c2c1C(=O)CC(C)(C)C2 [HS-198]
Kd [1]: 5.8 ± 0.6 µM
Release of E. coli GFP-HtpG from ATP Sepharose ([1]; in words): released
Release of T. denticola HtpG from immobilized ATP resin [2]: unable to release; also recorded: inactive
Release of recombinant human GFP-Hsp90α from ATP Sepharose beads [3]: did not
